US20110250292A1, “COMPOSITION FOR IMPROVING RA[…] CANCER” (CHONJISAN CO., LTD., priority 2008, published 2011)

Assays:
[1] = oral dosage form; Z. X. Shen et al., Blood 89 (1997); cited from earlier work
[2] = test system: human nasopharyngeal squamous cell carcinoma (FaDu); test: Fractional irradiation and tetra-arsenic oxide treatment on Balb/c nu/nu mouse having human nasopharyngeal squamous cell carcinoma (tumor volume); type: in vivo; conditions: 8 mg/kg through abdominal cavity; fractional irradiation 12 Gy 4 times per week for 4 weeks; FIG. 3
Protocol: (§1) Balb/c, and Balb/c, nu/nu female mice (weight: 20 to 25 g, age: 6 to 8 weeks) were obtained from Orient bio (Taejun, Korea), and WEHI164 tumor cell line (derived from Meth-A-induced fibrosarcoma) and FaDu tumor cell line (derived from human nasopharyngeal squamous cell carcinoma) were bought from KCCB (Seoul, Korea). WEHI164 cells (5×10^5) or FaDu cells (1×10^6) in MEM 50 μl were hypodermically injected into a rear leg of a Balb/c or Balb/c nu/nu mouse, and then the growth of a tumor was observed.
(§2) Tetra-arsenic oxide obtained from Genew Science (Seoul, Korea) was placed in distilled water, and continuously stilled and dissolved. The resultant liquid was stored as a stock liquid at 4° C. The stock liquid was diluted with a phosphoric acid buffer solution in such a manner as to have a final concentration of 0.5 mg/ml.
(§3) In order to minimize acute arsenic toxicity, dextrose was added with a final concentration of 5% (F. X. Reichl, H. Kreppel, L. Szinicz, B. Fichtl, and W. Forth, Reduction of arsenic trioxide toxicity in mice by repeated treatment with glucose. Arch Toxicol Suppl 14 (1991) 225-7). […]
(§4) A tumor volume was measured twice to three times per week. The tumor size was measured by calipers, and the tumor volume was calculated by a×b×h/2 (a=minimum length, b=maximum length, h=height). […]

[3] = M. J. Park et al., Int. J. Oncol. 22, 2003; cited from earlier work
[4] = test system: human nasopharyngeal squamous cell carcinoma (FaDu); test: Single irradiation and tetra-arsenic oxide treatment on Balb/c nu/nu mouse having human nasopharyngeal squamous cell carcinoma (tumor volume); type: in vivo; conditions: FIGS. 2 and 3
Protocol: as §1, §2, §3, §4

[5] = test system: Meth-A tumor (WEHI164 fibrosarcoma); test: Irradiation and tetra-arsenic oxide treatment on Balb/c mouse having Meth-A tumor (tumor volume); type: in vivo; conditions: 8 mg/kg once into abdominal cavity 1 hour after single local irradiation; 6 mice; FIG. 1; *p<0.05
Protocol: as §1, §2
In order to minimize acute arsenic toxicity, dextrose was added with a final concentration of 5% (F. X. Reichl, H. Kreppel, L. Szinicz, B. Fichtl, and W. Forth, Reduction of arsenic trioxide toxicity in mice by repeated treatment with glucose. Arch Toxicol Suppl 14 (1991) 225-7).
In irradiation, a cobalt-60 unit (Theratron 780; AECL, Kanata, Ontarino, Canada) was used. […]
A change in the tumor size was measured by calipers twice to three times per week. A tumor volume was calculated by a×b×h/2 (a=minimum length, b=maximum length, h=height). […]

Molecule | gastrointestinal toxicity on oral administration [1] | radiosensitizer effect on tumor volume with fractional irradiation [2] | toxicity on oral administration [3] | tumor growth inhibition, separate treatment of tetra-arsenic oxide compared to control group ([4]; 8 mg/kg once through abdominal cavity, no irradiation) | tumor growth, combination with irradiation compared to irradiation alone ([4]; 8 mg/kg through abdominal cavity plus local irradiation) | growth of tumor (tumor volume), combination with irradiation compared to irradiation alone [5]
arsenic trioxide | serious gastrointestinal toxicity | – | – | – | – | –
O1[As]2O[As]3O[As]1O[As](O2)O3 [tetra-arsenic oxide, 2,4,6,8,9,10-Hexaoxa-1,3,5,7-tetraarsatricyclo [3.3.1.1^3,7]decane] | – | significant effect as a radiosensitizer | very low toxicity | hardly has an effect on tumor growth inhibition | significantly reducing tumor growth | significantly reduced the growth of tumor
